According to patent publication US20220287935A1, “CANNABINOID-CONTAINING SKIN CARE COMPOSITIONS” (Cannasmetics Ltd., priority 2021, published 2022):

Key:
[1] = tested on: IL6 secretion from LPS-stimulated THP-1 cells; assay: IL6 secretion from LPS-stimulated THP-1 cells (HTRF); format: cell-based, Human; settings: alone
Method: (§1) Human THP-1 monocytes were seeded in a 96-well plate (Eppendorf) at a density of 3×10^5 cells/well (n=4) in 100 μl cell specific media and was differentiated using phorbol-12-myristate 13-acetate (PMA) (Sigma-Aldrich) at a final concentration of 200 nM. PMA supplemented media was removed after 72 hours. Cells were then washed twice with PBS and rested in fresh PMA-free media for further 24 hours in order to obtain phenotypic characteristics of macrophages (Daigneault et al., 2010, PLoS One, 5, e8668).
(§2) After 24 hours, cells were stimulated by Lipopolysaccharides (LPS) at a final concentration of 1μg/ml and were treated with the samples using specific media containing 5% FBS (100 μL of media solution containing the tested materials at the indicated concentration; see, Example 1).
(§3) After 24 hours, the cells supernatants were harvested and diluted up to 5 times in working media to avoid the hook effect. HTRF assays were performed in white 96-well plate (CisBio Bioassays) with a total working volume of 20 μL. All HTRF reagents were purchased from CisBio Bioassays and reconstituted according to the supplier protocols. For each assay 16 μL of diluted supernatants samples were incubated with 4 μL mixed solution containing donor and acceptor antibodies. Antibodies for the detection of TNFα and IL6 were used.
(§4) After 2 hours incubation, HTRF signals were measured using SPARK® multimode microplate reader with an excitation filter at 320 nm and fluorescence wavelength measurement at 620 and 665 nm, an integration delay of 60 μs and an integration time of 400 μs. Results were analyzed with a two-wavelength signal ratio: [intensity (665 nm)/intensity (620 nm)]*104. Calculation and analysis of cytokines release was performed according to the supplier protocols and using the 4PL 1/Y2 formula in GraphPad Prism software.

HaCaT cells [2] = assay: Cellular ROS production from HaCaT cells in the presence of H2O2 (DCFDA assay); format: cell-based; settings: each component alone, 5 hours, FIG. 9A
Method: Cellular ROS production was measured using a DCFDA assay kit (Abcam, ab113851)) according to the manufacturer's protocol. DCFDA (2′,7′-dichlorofluorescein diacetate), a cell-permeable fluorogenic dye, is deacetylated to a non-fluorescent compound by cellular esterases and later oxidized into highly fluorescent DCF (2′,7′-dichlorofluorescein) by ROS, allowing measurement of hydroxyl, peroxyl and other ROS activity within the cell.
HaCaT cells were seeded at a density of 2.5×10^4 for 24 hours on 96-well plates. After 24 hours, the cells were washed twice with 1× buffer assay and then incubated with 25 μM DCFDA in 1× buffer assay in a 37° C. incubator for 45 minutes. After two washes with 1× buffer assay, the cells were exposed to the tested samples and to 0.25 M H202, each added separately to the medium.
Cell fluorescence in the 96-well plates was measured at 488 nm excitation and 525 nm emission using a Tecan spark plate reader (Tecan US, Inc. Morrisville, NC), 5 hours after the addition of the tested samples or sample combinations.
The control used as reference are cells treated only with H2O2. The results are shown as percentage of the control.

[3] = tested on: TNFα secretion from LPS-stimulated THP-1 cells; assay: TNFα secretion from LPS-stimulated THP-1 cells (HTRF); format: cell-based, Human; settings: for ratio of TNFα secretion to cells viability: alone; for TNFα secretion (percentage of the control): each alone, highest concentration, FIG. 2A
Method: as §1, §2, §3, §4

[4] = Viability of THP-1 cells, MTT assay; format: cell-based, Human; settings: human, THP-1 cells (monocytes); for viability at 24 h: CBD and CBG alone, treatments reported with the IL6 data, read-out: viability levels
Method: (§5) Cell lines were cultured according to standard mammalian tissue culture protocols and sterile technique. Human monocytes THP-1 cells were cultured in RPMI medium 1640. HaCaT cells were cultured in DMEME medium. All media was supplemented with 10% fetal bovine serum, streptomycin ([…]), penicillin (100 U/ml) and Nystatin (12.5 U/ml). Cells were incubated in 5% CO2 at 37° C. All tissue culture cells were maintained in 75 cm^2 cell culture treated flask (Eppendorf) and all the media and supplements were obtained from Biological Industries. Treatment were performed by plating cells in a 96 micro well delta surface plates (Eppendorf) in a starting confluence of 1×10^4 cells/well.
(§6) The viability of the cells following treatment was determined using a commercially available MTT assay kit (Abcam, ab146345) and performed according to manufacturer's instructions. Briefly, cells were seeded in a 96-well plate at a density of 1×10^4 cells/well (n=4) in 100 μl cell specific media. After overnight incubation, cells were exposed to varying concentrations of isolated components (CBD, CBG and PSO, each alone) and combination samples as described in Example 1, in 100 μl of specific media, by adding a stock solution to the medium in amount that provides the indicated concentration (see, Tables 1, 2A and 2B). Then, plates were incubated in a humidified atmosphere containing 5% CO2 in air at 37° C. for 24 hours. According to the MTT standard protocol, after 24 hours treatment, the media was removed, and all cells were incubated with serum-free media containing 0.5 mg/ml MTT for 4 hours at the incubator. The MTT purple crystals formed by the viable cells were dissolved using isopropanol containing 0.04 mol/L HCl. The quantification was determined by measuring the optical density at 570 nm in a spectrophotometer reader (Spark, Tecan). Results are presented as proportional viability (%) by comparing between treated and untreated groups.
(§7) Cytotoxic potential of an extract was determined according to the following criteria:
(§8) Cytotoxic: Viability is reduced to less than 70% of vehicle control.
(§9) Non-cytotoxic: Viability is >70% of vehicle control

THP-1 cells = assay: Viability of THP-1 cells, MTT assay; format: cell-based, Human; settings: 24 hours
Method: as §5, §6, §7, §8, §9

HaCaT cells [5] = assay: Viability of HaCaT cells, MTT assay; format: cell-based; settings: alone, FIG. 8A
Method: as §5, §6, §7
Cytotoxic: Viability is reduced to less than 70% of vehicle control. […]

[6] = alone, reported with the TNFα data
[7] = each component alone, all tested concentrations, FIG. 1A-B

SMILES | ratio of IL6 secretion to cells viability ([1]; lowest tested concentration of 10 μM) | ROS production from HaCaT cells, effect relative to the solvent (ethanol) (HaCaT cells [2]) | ratio of TNFα secretion to cells viability ([3]; 10 μM) | ratio of TNFα secretion to cells viability ([3]; 20 μM) | ratio of TNFα secretion to cells viability ([3]; lowest concentration, FIG. 2B) | TNFα secretion (percentage of the control) [3] | viability at 24 h [4] [%] | viability at 24 h, 10 µM ([4]; alone, 10 μM, reported with the TNFα data) [%] | viability at 24 h, 20 µM [4, 6] [%] | THP-1 cells viability (THP-1 cells; 20 μM, FIG. 1A) | THP-1 cells viability (THP-1 cells; [7]) | toxicity to keratinocyte cells (HaCaT cells [5]; high concentration, e.g. 40 μM) | viability of HaCaT cells (toxicity) (HaCaT cells [5]; higher concentration) | ratio of IL6 secretion to cells viability ([1]; 40 μM) | ratio between IL-6 secretion and viability ([1]; highest concentration, FIG. 5B) | ratio of TNFα secretion to cells viability ([3]; medium concentration, FIG. 2B) | toxicity to keratinocyte cells (HaCaT cells [5]; only at a high concentration)
C=C(C)[C@@H]1CCC(C)=C[C@H]1c1c(O)cc(CCCCC)cc1O [CBD, cannabidiol] | 0.23 | very mild effect | about 0.6 | about 0.6 | lowest ratio | elevation of TNFα secretion | > 140 | 140 | 140 | most pronounced effect | enhanced viability | toxic | toxic | – | – | – | –
CCCCCc1cc(O)c(C/C=C(\C)CCC=C(C)C)c(O)c1 [CBG, cannabigerol] | – | very mild effect | – | about 0.6 | – | elevation of TNFα secretion | > 140 | – | 140 | – | enhanced viability | – | – | 0.29 | high reduction of the ratio | lowest ratio | mild toxicity
